Measured values from US20140336218A1, “ARFORMOTEROL AND TIOTROPIUM COMPOSITIONS AND METHODS FOR USE” (priority 2008, published 2014).

Key:
COPD patients [1] = assay: Spirometry (FEV1, FVC) in 2-week randomized, double dummy, parallel group clinical trial; format: in vivo, human
Method: (§1) This was a 2-week, prospective, multi-center (34 sites), randomized, modified blind, double dummy, parallel group study designed to evaluate the efficacy and safety of the combination of arformoterol 15 μg BID and tiotropium 18 μg QD (dosed sequentially) versus the individual mono-therapies in the treatment of COPD patients. The study was conducted according to the principles established by the Declaration of Helsinki (see, e.g., World Medical Association Declaration of Helsinki. Recommendations guiding physicians in biomedical research involving human subjects. JAMA 1997; 277:925-926.). Appropriate Institutional Review boards approved the protocol and written informed consent was obtained from the patients.
All patients had non-asthmatic COPD (including emphysema and/or chronic bronchitis). […] They also were required to have a pre-bronchodilator baseline pulmonary function of FEV1>0.7 L, FEV1/FVC ratio of ≦70%, and FEV1≦65% predicted. Patients were excluded if they had life-threatening or unstable respiratory status within 30 days of the screening visit. Patients who changed their prescribed dose or type of COPD medication within 14 days prior to screening or who had ever used tiotropium bromide inhalation powder were excluded.
(§2) Eligible patients were randomized to receive one of three treatments for 14 days: nebulized arformoterol 15 μg (Brovana®, Sepracor Inc., Marlborough, Mass.) BID and placebo DPI QD, nebulized placebo BID and tiotropium 18 μg (Spriva® HandiHaler® Boehringer Ingelheim, Ridgefield, Conn.) DPI QD, or nebulized arformoterol 15 μg BID and tiotropium 18 μg DPI QD. The nebulized drug was administered first using the PARI LC Plus® nebulizer driven by the Duraneb 3000® compressor (Pari: Pari Respiratory Equipment Inc., Midlothian, Va.) at a flow rate of 3.3 L/minute followed (within 5 minutes) by the DPI administration (HandiHaler®). The tiotropium and placebo DPI capsules were identical in size and shape but differed in color.
At week 0 and week 2, medical event calendars and blood samples were collected and vital signs and heart measurements analyzed. At week 0, spirometry was performed pre-morning dose, immediately (within 5 minutes) and at 30 minutes, 1, 2, 4, 6, 8, 10, and 12 hours post-first dose. After the 12-hour pulmonary function test patients self-administered the evening dose of study medication. At week 2, serial spirometry was also performed as at week 0, as well as immediately (within 5 minutes) following the evening dose (administered 12 hours after the morning dose) and 12.5, 13, 14, 16, 23, and 24 hours post-morning dose. Inspiratory capacity was evaluated pre-dose and at 2 hours post-morning dose at week 0, and pre-dose and 2, 11, 14, and 24 hours post-morning dose at week 2. All inspiratory capacity measurements were the mean of acceptable inspiratory capacity maneuvers, two of which were reproducible. Prior to an inspiratory capacity maneuver a patient had to have a stable expiratory level for about 10 breaths. Once the stable level was achieved, at the end of exhalation of a normal breath the patient was asked to make a steady and full inhalation at normal inspiratory flow rates until the lungs were completely full, and then to exhale at a normal rate.
All pulmonary function values used were the highest among the three acceptable maneuvers. The Investigator ensured that all spirometry was performed in accordance with the American Thoracic Society/European Respiratory Society Standardisation of Spirometry guidelines (see, e.g., Miller M R, Hankinson J, Brusasco V, Burgos F, Casaburi R, Coates A, et al. Standardisation of spirometry. Eur Respir J 2005; 26:319-338; herein incorporated in its entirety by reference). Centralized over-reading of spirometry and inspiratory capacity pulmonary function measures were used for quality control.

COPD patients [2] = assay: Adverse events in 2-week clinical trial
Method: as §1, §2
Descriptive statistics were calculated by treatment for baseline characteristics and each efficacy parameter. Adverse events were summarized using counts and percentages. All adverse events were coded using MedDRA (Medical Dictionary for Regulatory Activities (see, e.g., MedDRA and MSSO. The medical dictionary for regulatory activities 2008). A COPD exacerbation was pre-defined as an increase in symptoms that necessitated any change in baseline medication other than bronchodilators (e.g. anti-inflammatory agents, antibiotics, supplemental oxygen therapy, etc.) or caused the patient to require additional medical attention (hospitalization, emergency room visit, etc.).

COPD patients [3] = assay: Rescue medication (levalbuterol MDI) use in 2-week clinical trial; format: in vivo, human
Method: as §1
During the study period, the use of LABAs or long-or short-acting anticholinergic bronchodilators (except for the study medication) was prohibited. Use of oral and inhaled corticosteroids was allowed as long as patients were on a stable dosing regimen for at least 14 days prior to study entry that was maintained throughout the study. Patients were required to withhold oral corticosteroids for at least 24 hours prior to pulmonary function testing. Leukotriene modifiers and methylxanthines were not allowed for at least 7-days prior to study entry. Levalbuterol MDI (Xopenex® Sepracor Inc., Marlborough, Mass.) was supplied and used as-needed for rescue medications for acute bronchospasm and acute treatment of COPD symptoms throughout the trial. Patients were instructed to withhold the use of rescue medication for ≧6 hours prior to each clinic visit.
At the screening visit, baseline values were obtained for COPD symptoms, Modified Medical Research Council (MMRC) Dyspnea Scale, heart rate, vital signs, and pulmonary function tests. Medical event calendars and medication logs that were to be completed daily, and rescue medication were also dispensed. The medication logs were used to assess compliance by monitoring the number of UDV/DPI doses taken.
as §2

[4] = ITT, change from baseline at week 2
[5] = ITT, week 2, combined therapy versus the mono-therapy
[6] = baseline percent predicted FEV1 <50%, week 2, combined versus the mono-therapy
[7] = baseline percent predicted FEV1 <50%, week 2 from study baseline
[8] = baseline percent predicted FEV1 ≧50%, week 2, combined versus the mono-therapy
[9] = baseline percent predicted FEV1 ≧50%, week 2 from study baseline
[10] = <50% percent predicted FEV1, changes in levalbuterol MDI use at week 2
[11] = ITT, week 2, change from baseline, levalbuterol rescue
[12] = ≧50% percent predicted FEV1, changes in levalbuterol MDI use at week 2

COc1ccc(C[C@@H](C)NC[C@H](O)c2ccc(O)c(NC=O)c2)cc1 [Arformoterol]
mean FEV1 improvement 2-hours after the evening dose (COPD patients [1]; 2 hours after evening dose): ~182 mL
mean FEV1 improvement 2-hours after the morning dose (COPD patients [1]; 2 hours after morning dose): approximately 213 mL
Peak Change in FEV1 over 12 hours, mean (SD) (COPD patients [1]; [4]): 0.27 (0.21) L
Peak change in FVC over 12 hours, mean (SD) (COPD patients [1]; [4]): 0.48 (0.37) L
Change in FEV1AUC0-24, mean (SD) (COPD patients [1]; ITT, change from baseline at week 2, time normalized): 0.10 (0.21) L
Difference between combined therapy and mono-therapies in change in FEV1AUC0-24, LS mean (COPD patients [1]; [5]): 0.12 L
Difference between combined therapy and mono-therapies in change in trough FEV1, LS mean (COPD patients [1]; [5]): 0.07 L
Difference between combined therapy and mono-therapies in peak change in FEV1 over 12 hours, LS mean (COPD patients [1]; [5]): 0.11 L
Difference between combined therapy and mono-therapies in peak change in FVC over 12 hours, LS mean (COPD patients [1]; [5]): 0.12 L
Change in trough FEV1, mean (SD) (COPD patients [1]; ITT, week 2, trough = 24 hour time point after morning dose): 0.09 (0.23) L
Difference between combined therapy and mono-therapies in change in FEV1AUC0-24, LS mean (COPD patients [1]; [6]): 0.11 L
Difference between combined therapy and mono-therapies in peak change in FEV1 over 12 hours, LS mean (COPD patients [1]; [6]): 0.11 L
Difference between combined therapy and mono-therapies in peak change in FVC over 12 hours, LS mean (COPD patients [1]; [6]): 0.15 L
Difference between combined therapy and mono-therapies in trough FEV1, LS mean (COPD patients [1]; [6]): 0.08 L
Peak Change in FEV1 over 12 hours, mean (SD) (COPD patients [1]; [7]): 0.31 (0.23) L
Peak change in FVC over 12 hours, mean (SD) (COPD patients [1]; [7]): 0.56 (0.41) L
Trough FEV1 (change in FEV1 at 24 hours post-dose), mean (SD) (COPD patients [1]; [7]): 0.13 (0.23) L
Change in FEV1AUC0-24, mean (SD) (COPD patients [1]; baseline percent predicted FEV1 <50%, week 2 from study baseline (pre-dose week 0)): 0.15 (0.22) L
Difference between combined therapy and mono-therapies in change in FEV1AUC0-24, LS mean (COPD patients [1]; [8]): 0.14 L
Difference between combined therapy and mono-therapies in peak change in FEV1 over 12 hours, LS mean (COPD patients [1]; [8]): 0.10 L
Difference between combined therapy and mono-therapies in peak change in FVC over 12 hours, LS mean (COPD patients [1]; [8]): 0.08 L
Difference between combined therapy and mono-therapies in trough FEV1, LS mean (COPD patients [1]; [8]): 0.05 L
Peak Change in FEV1 over 12 hours, mean (SD) (COPD patients [1]; [9]): 0.22 (0.17) L
Peak change in FVC over 12 hours, mean (SD) (COPD patients [1]; [9]): 0.34 (0.25) L
Trough FEV1 (change in FEV1 at 24 hours post-dose), mean (SD) (COPD patients [1]; [9]): 0.02 (0.21) L
Change in FEV1AUC0-24, mean (SD) (COPD patients [1]; baseline percent predicted FEV1 ≧50%, week 2 from study baseline (pre-dose week 0)): 0.03 (0.19) L
mean improvement in peak FVC (COPD patients [1]; from baseline after 2 weeks of treatment): 48 mL
LS mean (±SE) peak improvement in FEV1 from visit pre-dose (COPD patients [1]; from visit pre-dose): 0.19 L
Any adverse event, n (%) (COPD patients [2]; ITT, 2 weeks of treatment): 19 (25.0) n (%)
COPD exacerbations (COPD patients [2]; ITT, 2 weeks of treatment): 3 (3.9) n (%)
Discontinued due to adverse events, n (%) (COPD patients [2]; ITT, 2 weeks of treatment): 2 (2.6) n (%)
Overall cardiovascular adverse events, n (%) (COPD patients [2]; ITT, 2 weeks of treatment): 2 (2.6) n (%)
Serious adverse events, n (%) (COPD patients [2]; ITT, 2 weeks of treatment): 1 (1.3) n (%)
patients reporting a serious adverse event (COPD patients [2]; small intestinal obstruction): one
Number of actuations per day, mean (SD) (COPD patients [3]; [10]): −2.1 (2.3) actuations per day
Used levalbuterol, n (%) (COPD patients [3]; [10]): 45 (95.7) n (%)
Used levalbuterol, n (%) (COPD patients [3]; ITT, week 2): 40 (52.6) n (%)
Number of actuations per day, mean (SD) (COPD patients [3]; [11]): −1.8 (2.2) actuations per day
Number of days per week, mean (SD) (COPD patients [3]; [11]): −2.1 (2.6) days per week
Number of actuations per day, mean (SD) (COPD patients [3]; [12]): −1.3 (2.0) actuations per day
Used levalbuterol, n (%) (COPD patients [3]; [12]): 26 (90)^ n (%)
